Test results as given in PMC5458547, “Discovery of first-in-class reversible dual small molecule inhibitors against G9a and DNMTs in hematological malignancies” (Nature Communications, 2017).

Experiments:
KG-1 = experiment: Cell proliferation assay (MTS); assay type: cell-based; conditions: Homo sapiens, AML, 48 h
PRMT3 = biological target: T1, PRMT3 (Homo sapiens, UniProt O60678); experiment: Epigenetics selectivity panel (BPS Bioscience); assay type: biochemical
T1 construct: purchased DiscoverX KINOMEscan (kinases); BPS Bioscience (epigenetic targets)
T1 sequence (O60678 whole entry): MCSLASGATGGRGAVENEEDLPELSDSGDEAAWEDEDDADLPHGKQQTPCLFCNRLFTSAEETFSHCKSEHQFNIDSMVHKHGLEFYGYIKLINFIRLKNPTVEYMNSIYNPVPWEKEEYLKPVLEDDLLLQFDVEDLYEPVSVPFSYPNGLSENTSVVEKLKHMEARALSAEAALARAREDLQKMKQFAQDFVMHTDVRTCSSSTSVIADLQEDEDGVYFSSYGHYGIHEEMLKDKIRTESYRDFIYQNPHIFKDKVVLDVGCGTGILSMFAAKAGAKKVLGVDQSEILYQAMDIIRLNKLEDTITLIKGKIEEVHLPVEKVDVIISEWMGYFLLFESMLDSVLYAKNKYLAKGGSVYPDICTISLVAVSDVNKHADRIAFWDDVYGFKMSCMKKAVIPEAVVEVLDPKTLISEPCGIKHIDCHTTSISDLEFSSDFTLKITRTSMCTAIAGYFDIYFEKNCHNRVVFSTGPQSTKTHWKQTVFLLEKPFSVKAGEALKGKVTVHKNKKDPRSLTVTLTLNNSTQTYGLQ

[1] = Cytotoxicity in THLE-2 cells (ATP); assay type: cell-based; conditions: human; THLE-2, 72 h exposure; read-out: LC50
JJN3 = experiment: Cell proliferation assay (MTS); assay type: cell-based; conditions: Homo sapiens, JJN-3; MM
JMJD2D = biological target: T2, JMJD2D (Homo sapiens, UniProt Q6B0I6); experiment: Epigenetics selectivity panel (BPS Bioscience); assay type: biochemical
T2 construct: purchased DiscoverX KINOMEscan (kinases); BPS Bioscience (epigenetic targets)
T2 sequence (Q6B0I6 whole entry): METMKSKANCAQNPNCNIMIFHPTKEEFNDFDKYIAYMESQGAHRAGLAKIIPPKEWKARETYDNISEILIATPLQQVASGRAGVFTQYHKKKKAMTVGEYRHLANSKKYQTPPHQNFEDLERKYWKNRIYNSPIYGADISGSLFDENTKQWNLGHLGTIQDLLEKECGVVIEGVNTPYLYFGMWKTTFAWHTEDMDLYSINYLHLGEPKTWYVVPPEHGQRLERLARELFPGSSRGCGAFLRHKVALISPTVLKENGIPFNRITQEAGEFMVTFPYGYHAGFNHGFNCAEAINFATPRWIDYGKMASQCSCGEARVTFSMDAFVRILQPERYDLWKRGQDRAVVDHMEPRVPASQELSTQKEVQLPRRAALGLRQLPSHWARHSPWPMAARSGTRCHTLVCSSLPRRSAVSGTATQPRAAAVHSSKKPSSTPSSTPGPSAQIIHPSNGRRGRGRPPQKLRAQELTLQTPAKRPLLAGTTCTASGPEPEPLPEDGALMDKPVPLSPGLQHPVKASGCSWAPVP

WM-35 = experiment: Cell proliferation assay (MTS); assay type: cell-based; conditions: Homo sapiens, WM35; Melanoma
in vitro = assay type: cell-based; conditions: human
Protocol: Cell viability was determined by measuring the concentration of cellular adenosine triphosphate (ATP) using the ATP1Step Kit as described by the manufacturer (Perkin-Elmer). PBMCs were isolated following the regular density gradient centrifugation procedure with Ficoll. Details are provided in Supplementary Information. […]
each test plate followed by incubation for 10 min at room temperature on an orbital shaker. ATP concentration was determined by reading chemical luminescence using the Envision plate reader (PerkinElmer). The percentage of viable cells relative to the non-drug treated controls was determined for […]
Cells were plated in 96-well black microplates at 100,000 cells/well density with DMEM medium (containing 10% FBS and antibiotics) and were incubated at 37 °C (5% CO2, 95% humidity) for 24 h. […] Following this 72 h exposure to test compounds, cell viability in each well was determined by measuring the concentration of cellular adenosine triphosphate (ATP) using the ATP1Step Kit as described by the manufacturer (Perkin-Elmer). […] ATP concentration was determined by reading chemical luminescence using the Envision plate reader (PerkinElmer). […]
sampler temperature was set at 7 °C and column temperature at 50 °C. For detection and quantification, the electrospray ionization operated in the positive mode, and the collision gas used was ultra-pure argon at a flow rate of 0.15 mL min−1. […]

SU8686 = experiment: Cell proliferation assay (MTS); assay type: cell-based; conditions: Homo sapiens, SU.86.86; Pancreas
SUV39H1 = biological target: T3, SUV39H1 (Homo sapiens, UniProt O43463); experiment: Epigenetics selectivity panel (BPS Bioscience); assay type: biochemical
T3 construct: purchased DiscoverX KINOMEscan (kinases); BPS Bioscience (epigenetic targets)
T3 sequence (O43463 whole entry): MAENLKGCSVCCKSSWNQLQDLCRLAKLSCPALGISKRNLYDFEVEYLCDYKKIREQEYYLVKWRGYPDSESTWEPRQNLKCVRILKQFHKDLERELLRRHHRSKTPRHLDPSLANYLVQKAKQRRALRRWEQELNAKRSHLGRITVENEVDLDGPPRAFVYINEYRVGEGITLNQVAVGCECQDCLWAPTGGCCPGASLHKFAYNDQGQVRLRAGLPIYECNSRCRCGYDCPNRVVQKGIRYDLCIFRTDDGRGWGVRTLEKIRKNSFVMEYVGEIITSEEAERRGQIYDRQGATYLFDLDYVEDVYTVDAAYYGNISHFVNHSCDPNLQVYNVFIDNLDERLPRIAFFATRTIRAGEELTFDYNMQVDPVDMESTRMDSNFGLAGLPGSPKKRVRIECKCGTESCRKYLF

H358 = experiment: Cell proliferation assay (MTS); assay type: cell-based; conditions: Homo sapiens, NCI-H358; NSCLC
SEM cells = experiment: Cell proliferation assay (MTS); assay type: cell-based; conditions: Homo sapiens; ALL, 48 h
BRD4(BD1+BD2) = biological target: T4, BRD4(BD1+BD2) (Homo sapiens, UniProt O60885); experiment: Epigenetics selectivity panel (BPS Bioscience); assay type: binding
T4 construct: BRD2(BD1+BD2), BRD4(BD1+BD2), BRDT(BD1); purchased BPS Bioscience (contract panel)

Q: What does the source list for `COc1cc2c(NC3CCN(C)CC3)cc(-c3ccc(C)o3)nc2cc1OCCCN1CCCC1` [CM-272, 6-methoxy-2-(5-methyl-2-furyl)-N-(1-methyl-4-piperidyl)-7-(3-pyrrolidin-1-ylpropoxy)quinolin-4-amine]?
A: GI50 (KG-1): 3.54 µM; inhibition at 10 µM (PRMT3): 7%; CC50 at 72 h [1]: 1.78 µM; GI50 (JJN3): 1.32 µM; inhibition at 10 µM (JMJD2D): 5%; GI50 (WM-35): 0.854 µM; CC50 at 72 h (in vitro): 1.9 µM; GI50 (SU8686): 1.4 µM; inhibition at 10 µM (SUV39H1): 1%; GI50 (H358): 0.644 µM; GI50 (SEM cells): 3.32 µM; inhibition at 10 µM (BRD4(BD1+BD2)): 56%; IC50 (BRD4(BD1+BD2); BPS): 1.5 µM

Q: For `COc1cc2c(NCC3CCN(C)CC3)cc(-c3ccc(C)o3)nc2cc1OCCCN1CCCC1` [CM-579, 6-methoxy-2-(5-methyl-2-furyl)-N-[(1-methyl-4-piperidyl)methyl]-7-(3-pyrrolidin-1-ylpropoxy)quinolin-4-amine], which GI50 (KG-1) is on record?
A: > 10 µM

Q: What about the inhibition at 10 µM (PRMT3) of the same molecule?
A: 5%

Q: And the CC50 at 72 h [1]?
A: 1.3 µM

Q: And the GI50 (JJN3)?
A: 4.35 µM

Q: What about the inhibition at 10 µM (JMJD2D) of the same molecule?
A: 25%

Q: What about the GI50 (WM-35) of the same molecule?
A: 0.168 µM

Q: And the CC50 at 72 h (in vitro)?
A: 7.39 µM

Q: And the GI50 (SU8686)?
A: 0.621 µM

Q: And the inhibition at 10 µM (SUV39H1)?
A: 2%

Q: What about the GI50 (H358) of the same molecule?
A: 0.197 µM

Q: What about the GI50 (SEM cells) of the same molecule?
A: > 10 µM

Q: And the inhibition at 10 µM (BRD4(BD1+BD2))?
A: 0%
